In brackets after ≈: the same amount, converted by molar mass. Read-outs that look alike come from different tables or passages of the source.
Experiments:
Type in all cases: cell-based, Staphylococcus aureus
S. aureus HG003 [1] = assay: Propidium iodide uptake, membrane permeability (Example 11)
S. aureus HG003 [2] = assay: Killing by permeabilizing molecules in combination with tobramycin over 24 hours (Example 11)
S. aureus HG003 [3] = assay: microbe, parasite or virus in culture; conditions: for MIC: Staphylococcus aureus
S. aureus HG003 [4] = assay: Killing in the presence of protein synthesis inhibitor linezolid (Example 8); conditions: tobramycin 58 μg/ml, linezolid 50 μg/ml
S. aureus HG003 [5] = assay: Killing of S. aureus by tobramycin with or without rhamnolipids (Example 4); conditions: tobramycin 58 μg/ml alone
[6] = system: S. aureus HG003 menD mutant (SCV)
[7] = system: S. aureus HG003, arsenate treated; assay: Killing of low energy (arsenate treated) S. aureus (Example 6); conditions: tobramycin 58 μg/ml, arsenate 1 mM

Structure (SMILES) | lethality to S. aureus alone (S. aureus HG003 [1]) | permeabilization of S. aureus (propidium iodide uptake) (S. aureus HG003 [1]) | effect of the presence of P. aeruginosa supernatant on MIC (S. aureus HG003 [3]) | MIC (S. aureus HG003 [3]; HG003) | MIC (S. aureus HG003 [3]; PA14 / PAO1) | further results
CCCCCCCCCCCC(=O)OCC(O)CO (stereo not drawn) [glycerol monolaureate] | not lethal | permeabilize | – | – | – | potentiation of tobramycin killing over 24 hours (S. aureus HG003 [2]): significant potentiation
Cc1onc(-c2ccccc2)c1C(=O)N[C@@H]1C(=O)N2[C@@H]1SC(C)(C)[C@@H]2C(=O)O [oxacillin] | – | – | not affected | 0.39 µg/mL (≈ 0.971 µM) | 0.39 µg/mL (≈ 0.971 µM) | –
CCCCCC/C=C\CCCCCCCC(=O)O [palmitoleic acid] | not lethal | permeabilize | – | – | – | potentiation of tobramycin killing over 24 hours (S. aureus HG003 [2]; in combination with tobramycin): significant potentiation
NC[C@H]1O[C@H](O[C@H]2[C@H](O)[C@@H](O[C@H]3O[C@H](CO)[C@@H](O)[C@H](N)[C@H]3O)[C@H](N)C[C@@H]2N)[C@H](N)C[C@@H]1O [tobramycin] | – | – | – | – | 3.12 to 6.25 µg/mL (≈ 6.68 to 13.4 µM) | killing in the presence of linezolid (S. aureus HG003 [4]): fails to kill; MIC (S. aureus HG003 [3]; PA14): 0.39 µg/mL (≈ 0.834 µM); survivors after 12 hours (S. aureus HG003 [5]): 10^4; susceptibility of the menD mutant [6]: resistant; killing of S. aureus under arsenate-induced low ATP [7]: fails to kill
CN[C@H](CC(C)C)C(=O)N[C@H]1C(=O)N[C@@H](CC(N)=O)C(=O)N[C@H]2C(=O)N[C@H]3C(=O)N[C@H](C(=O)N[C@H](C(=O)O)c4cc(O)cc(O)c4-c4cc3ccc4O)[C@H](O)c3ccc(c(Cl)c3)Oc3cc2cc(c3O[C@@H]2O[C@H](CO)[C@@H](O)[C@H](O)[C@H]2O[C@H]2C[C@](C)(N)[C@H](O)[C@H](C)O2)Oc2ccc(cc2Cl)[C@H]1O [vancomycin] | – | – | not affected | 1.25 µg/mL (≈ 0.863 µM) | 1.25 µg/mL (≈ 0.863 µM) | –

From patent US12594289B2, “Potentiation of antibiotic effect” (The University of North Carolina at Chapel Hill, priority 2017, dated 2026)
